According to patent publication US4065616A, “Processes for production of a 1-N-(α-hydroxy-.PHI.-amino alkanoyl)-3-deoxy-5-O-pentafuranosyl neamine and new compounds produced by the same processes” (Zaidan Hojin Biseibutsu Kagaku Kenkyu Kai, priority 1975, dated 1977):
≈ marks a conversion by molar mass, not a printed value. Read-outs that look alike come from different tables or passages of the source.

Legend:
[1] = system: Escherichia coli K-12 LA 290 R64; assay: M.I.C. by standard serial dilution method; assay type: cell-based; conditions: K12LA290R64, 18 h, read-out: minimum inhibitory concentration (M.I.C.)
Protocol: (§1) These particular compounds, that is, 1-n-(α-hydroxy-ω-aminoalkanoyl)-3'-deoxy-5-O-pentofuranosylneamines according to the aforesaid general formula (I) have useful antibacterial activity against a wide variety of bacteria, including gram-negative bacteria and gram-positive bacteria. The minimum inhibitory concentration (M.I.C.) (mcg/ml) of these compounds against various organisms was determined by a standard serial dilution method at an incubation temperature of 37° C, the estimation being made after 18 hours incubation or each test organism, except that the incubation time was 48 hours for Mycobacterium smegmatis. The incubation medium used was nutrient agar.

[2] = system: Escherichia coli NIHJ; assay: M.I.C. by standard serial dilution method; assay type: cell-based; conditions: E. coli NIHJ, nutrient agar, 37° C, 18 hours, read-out: minimum inhibitory concentration (M.I.C.)
Protocol: as §1

[3] = system: Sarcina lutea PCl 1001; assay: M.I.C. by standard serial dilution method; assay type: cell-based; conditions: Micrococcus luteus, PCL1001, nutrient agar, 37° C, 18 hours, read-out: minimum inhibitory concentration (M.I.C.)
Protocol: as §1

[4] = system: Salmonella typhosa T-63; assay: M.I.C. by standard serial dilution method; assay type: cell-based; conditions: Salmonella enterica, 18 h, read-out: minimum inhibitory concentration (M.I.C.)
Protocol: as §1

[5] = system: Proteus rettgeri GN 466; assay: M.I.C. by standard serial dilution method; assay type: cell-based; conditions: Providencia rettgeri, read-out: minimum inhibitory concentration (M.I.C.)
Protocol: as §1

[6] = system: Escherichia coli K-12 W677; assay: M.I.C. by standard serial dilution method; assay type: cell-based; conditions: K12W677, E. coli K-12 W677, nutrient agar, 37° C, 18 hours, read-out: minimum inhibitory concentration (M.I.C.)
Protocol: as §1

[7] = system: Klebsiella pneumoniae PCI 602; assay: M.I.C. by standard serial dilution method; assay type: cell-based; conditions: read-out: minimum inhibitory concentration (M.I.C.)
Protocol: as §1

[8] = system: Escherichia coli K-12 ML 1410 R81; assay: M.I.C. by standard serial dilution method; assay type: cell-based; conditions: 18 h, read-out: minimum inhibitory concentration (M.I.C.)
Protocol: as §1

[9] = system: Klebsiella pneumoniae Type 22, No. 3038; assay: M.I.C. by standard serial dilution method; assay type: cell-based; conditions: read-out: minimum inhibitory concentration (M.I.C.)
Protocol: as §1

[10] = system: Proteus rettgeri GN 311; assay: M.I.C. by standard serial dilution method; assay type: cell-based; conditions: Providencia rettgeri, GN311, nutrient agar, 37° C, 18 hours, read-out: minimum inhibitory concentration (M.I.C.)
Protocol: as §1

[11] = system: Escherichia coli K-12 LA 290 R55; assay: M.I.C. by standard serial dilution method; assay type: cell-based; conditions: K12LA290R55, 18 h, read-out: minimum inhibitory concentration (M.I.C.)
Protocol: as §1

[12] = system: Mycobacterium smegmatis ATCC 607; assay: M.I.C. by standard serial dilution method; assay type: cell-based; conditions: Mycolicibacterium smegmatis, ATCC607, nutrient agar, 37° C, 48 hours, read-out: minimum inhibitory concentration (M.I.C.)
Protocol: as §1

[13] = system: Staphylococcus aureus FDA 209P; assay: M.I.C. by standard serial dilution method; assay type: cell-based; conditions: FDA209P, read-out: minimum inhibitory concentration (M.I.C.)
Protocol: as §1

[14] = system: Escherichia coli K-12; assay: M.I.C. by standard serial dilution method; assay type: cell-based; conditions: K12, E. coli K-12, nutrient agar, 37° C, 18 hours, read-out: minimum inhibitory concentration (M.I.C.)
Protocol: as §1

[15] = system: Pseudomonas aeruginosa TI-13; assay: M.I.C. by standard serial dilution method; assay type: cell-based; conditions: TI13, P. aeruginosa TI-13, nutrient agar, 37° C, 18 hours, read-out: minimum inhibitory concentration (M.I.C.)
Protocol: as §1

[16] = system: Bacillus subtilis B-558; assay: M.I.C. by standard serial dilution method; assay type: cell-based; conditions: B558, B. subtilis B-558, nutrient agar, 37° C, 18 hours, read-out: minimum inhibitory concentration (M.I.C.)
Protocol: as §1

[17] = system: Escherichia coli K-12 JR66/W677; assay: M.I.C. by standard serial dilution method; assay type: cell-based; conditions: K12JR66/W677, 18 h, read-out: minimum inhibitory concentration (M.I.C.)
Protocol: as §1

[18] = system: Pseudomonas aeruginosa A3; assay: M.I.C. by standard serial dilution method; assay type: cell-based; conditions: P. aeruginosa A3, nutrient agar, 37° C, 18 hours, read-out: minimum inhibitory concentration (M.I.C.)
Protocol: as §1

[19] = system: Escherichia coli K-12 ML 1410; assay: M.I.C. by standard serial dilution method; assay type: cell-based; conditions: K12ML1410, E. coli K-12 ML 1410, nutrient agar, 37° C, 18 hours, read-out: minimum inhibitory concentration (M.I.C.)
Protocol: as §1

[20] = system: Pseudomonas aeruginosa GN 315; assay: M.I.C. by standard serial dilution method; assay type: cell-based; conditions: GN315, P. aeruginosa GN 315, nutrient agar, 37° C, 18 hours, read-out: minimum inhibitory concentration (M.I.C.)
Protocol: as §1

[21] = system: Escherichia coli K-12 ML 1630; assay: M.I.C. by standard serial dilution method; assay type: cell-based; conditions: K12ML1630, E. coli K-12 ML 1630, nutrient agar, 37° C, 18 hours, read-out: minimum inhibitory concentration (M.I.C.)
Protocol: as §1

[22] = system: Escherichia coli K-12 LA 290 R56; assay: M.I.C. by standard serial dilution method; assay type: cell-based; conditions: K12LA290R56, 18 h, read-out: minimum inhibitory concentration (M.I.C.)
Protocol: as §1

[23] = system: Pseudomonas aeruginosa 99; assay: M.I.C. by standard serial dilution method; assay type: cell-based; conditions: P. aeruginosa 99, nutrient agar, 37° C, 18 hours, read-out: minimum inhibitory concentration (M.I.C.)
Protocol: as §1

[24] = system: Escherichia coli K-12 ML 1629; assay: M.I.C. by standard serial dilution method; assay type: cell-based; conditions: read-out: minimum inhibitory concentration (M.I.C.)
Protocol: as §1

[25] = system: Pseudomonas aeruginosa No. 12; assay: M.I.C. by standard serial dilution method; assay type: cell-based; conditions: P. aeruginosa No. 12, nutrient agar, 37° C, 18 hours, read-out: minimum inhibitory concentration (M.I.C.)
Protocol: as §1

[26] = system: kanamycin-resistant bacteria; conditions: in words, prior work; cited from earlier work
[27] = clinical tests, in words; cited from earlier work
[28] = GN466, Proteus rettgeri GN 466, nutrient agar, 37° C, 18 hours
[29] = PCI602, K. pneumoniae PCI 602, nutrient agar, 37° C, 18 hours
[30] = K. pneumoniae Type 22, No. 3038, nutrient agar, 37° C, 18 hours
[31] = S. aureus FDA 209P, nutrient agar, 37° C, 18 hours
[32] = K12ML1629, E. coli K-12 ML 1629, nutrient agar, 37° C, 18 hours

Structure (SMILES) | MIC [1] [µg/mL] | MIC [2] [µg/mL] | MIC [3] [µg/mL] | MIC [4] [µg/mL] | MIC [6] [µg/mL] | MIC [8] [µg/mL] | MIC [10] [µg/mL] | MIC [11] [µg/mL] | MIC [12] [µg/mL] | MIC [14] [µg/mL] | MIC [15] [µg/mL] | MIC [16] [µg/mL] | MIC [17] [µg/mL] | MIC [18] [µg/mL] | MIC [19] [µg/mL] | MIC [20] [µg/mL] | MIC [21] [µg/mL] | MIC [22] [µg/mL] | MIC [23] [µg/mL] | MIC [25] [µg/mL] | also measured
NCC[C@H](O)C(=O)N[C@@H]1C[C@H](N)[C@@H](O[C@H]2O[C@H](CN)[C@@H](O)C[C@H]2N)[C@H](O[C@@H]2O[C@H](CO)[C@H](O)[C@H]2O)[C@H]1O [compound 6, 1-N-((S)-4-amino-2-hydroxybutyryl)-3'-deoxy-5-O-β-D-xylofuranosylneamine] | 0.2 (≈ 0.371 µM) | 0.78 (≈ 1.45 µM) | 25 (≈ 46.3 µM) | 0.78 (≈ 1.45 µM) | 0.39 (≈ 0.723 µM) | 1.56 (≈ 2.89 µM) | 3.12 (≈ 5.78 µM) | 0.78 (≈ 1.45 µM) | 0.2 (≈ 0.371 µM) | 0.39 (≈ 0.723 µM) | 25 (≈ 46.3 µM) | 0.2 (≈ 0.371 µM) | 0.39 (≈ 0.723 µM) | 3.12 (≈ 5.78 µM) | 1.56 (≈ 2.89 µM) | > 100 | 0.78 (≈ 1.45 µM) | 0.39 (≈ 0.723 µM) | 12.5 (≈ 23.2 µM) | 25 (≈ 46.3 µM) | MIC [5, 28]: 0.78 µg/mL (≈ 1.45 µM); MIC [7, 29]: 0.39 µg/mL (≈ 0.723 µM); MIC [9, 30]: 0.39 µg/mL (≈ 0.723 µM); MIC [13, 31]: 0.39 µg/mL (≈ 0.723 µM); MIC [24, 32]: 0.39 µg/mL (≈ 0.723 µM)
NCC[C@H](O)C(=O)N[C@@H]1C[C@H](N)[C@@H](O[C@H]2O[C@H](CN)[C@@H](O)C[C@H]2N)[C@H](O[C@@H]2O[C@H](CN)[C@H](O)[C@H]2O)[C@H]1O [compound 4, 1-N-((S)-4-amino-2-hydroxybutyryl)-5-O-(5-amino-5-deoxy-β-D-xylofuranosyl)-3'-doxyneamine] | 0.39 (≈ 0.724 µM) | 0.2 (≈ 0.371 µM) | 3.12 (≈ 5.79 µM) | 0.2 (≈ 0.371 µM) | 0.39 (≈ 0.724 µM) | 0.78 (≈ 1.45 µM) | 3.12 (≈ 5.79 µM) | 0.39 (≈ 0.724 µM) | 0.2 (≈ 0.371 µM) | 0.2 (≈ 0.371 µM) | 3.12 (≈ 5.79 µM) | 0.2 (≈ 0.371 µM) | 0.2 (≈ 0.371 µM) | 0.39 (≈ 0.724 µM) | 0.78 (≈ 1.45 µM) | > 100 | 0.78 (≈ 1.45 µM) | 0.78 (≈ 1.45 µM) | 3.12 (≈ 5.79 µM) | 3.12 (≈ 5.79 µM) | MIC [5, 28]: 0.78 µg/mL (≈ 1.45 µM); MIC [7, 29]: 0.39 µg/mL (≈ 0.724 µM); MIC [9, 30]: 0.39 µg/mL (≈ 0.724 µM); MIC [13, 31]: 0.39 µg/mL (≈ 0.724 µM); MIC [24, 32]: 0.39 µg/mL (≈ 0.724 µM)
NC[C@@H]1CC[C@@H](N)[C@@H](O[C@H]2[C@H](O)[C@@H](O[C@H]3O[C@H](CO)[C@@H](O)[C@H](N)[C@H]3O)[C@H](N)C[C@@H]2N)O1 [DKB, 3',4'-dideoxykanamycin B] | – | – | – | – | – | – | – | – | – | – | – | – | – | – | – | – | – | – | – | – | antibacterial activity against resistant bacteria [26]: high antibacterial activity against the above-mentioned resistant bacteria; clinical usefulness [27]: very useful and effective semi-synthetic antibiotic in clinical tests
NC[C@H](O)C(=O)N[C@@H]1C[C@H](N)[C@@H](O[C@H]2O[C@H](CN)[C@@H](O)C[C@H]2N)[C@H](O[C@@H]2O[C@H](CO)[C@H](O)[C@H]2O)[C@H]1O [Compound No. 2, 1-n-((S)-3-amino-2-hydroxypropionyl)-3'-deoxy-5-O-β-D-xylofuranosylneamine] | 0.78 (≈ 1.48 µM) | 0.78 (≈ 1.48 µM) | 25 (≈ 47.6 µM) | 0.78 (≈ 1.48 µM) | 0.78 (≈ 1.48 µM) | 3.12 (≈ 5.94 µM) | 6.25 (≈ 11.9 µM) | 0.78 (≈ 1.48 µM) | 0.39 (≈ 0.742 µM) | 0.39 (≈ 0.742 µM) | 25 (≈ 47.6 µM) | 0.78 (≈ 1.48 µM) | 0.78 (≈ 1.48 µM) | 3.12 (≈ 5.94 µM) | 3.12 (≈ 5.94 µM) | > 100 | 1.56 (≈ 2.97 µM) | 0.78 (≈ 1.48 µM) | 12.5 (≈ 23.8 µM) | 12.5 (≈ 23.8 µM) | MIC ([5]; GN466, 18 h): 1.56 µg/mL (≈ 2.97 µM); MIC ([7]; PCI602, 18 h): 1.56 µg/mL (≈ 2.97 µM); MIC ([9]; 18 h): 1.56 µg/mL (≈ 2.97 µM); MIC ([13]; 18 h): 1.56 µg/mL (≈ 2.97 µM); MIC ([24]; K12ML1629, 18 h): 1.56 µg/mL (≈ 2.97 µM)
